Measured values taken from patent publication US11034661B2, “Substituted N′-hydroxycarbamimidoyl-1,2,5-oxadiazole compounds as indoleamine 2,3-dioxygenase IDO inhibitors” (Merck Sharp & Dohme Corp., priority 2017, dated 2021).

Experiments:
[1] = target: IDO1 in Hela cells stimulated with IFNγ (Homo sapiens (Human), UniProt P14902); test: IDO1 Cellular Assay in Hela Cells Stimulated with IFNγ; assay type: cell-based; conditions: IFNγ 100 ng/mL, about 48 hours, fluorescence readout, read-out: IDO1 HELA Cell Assay, IC50
IDO1 in Hela cells stimulated with IFNγ, sequence (P14902 whole entry): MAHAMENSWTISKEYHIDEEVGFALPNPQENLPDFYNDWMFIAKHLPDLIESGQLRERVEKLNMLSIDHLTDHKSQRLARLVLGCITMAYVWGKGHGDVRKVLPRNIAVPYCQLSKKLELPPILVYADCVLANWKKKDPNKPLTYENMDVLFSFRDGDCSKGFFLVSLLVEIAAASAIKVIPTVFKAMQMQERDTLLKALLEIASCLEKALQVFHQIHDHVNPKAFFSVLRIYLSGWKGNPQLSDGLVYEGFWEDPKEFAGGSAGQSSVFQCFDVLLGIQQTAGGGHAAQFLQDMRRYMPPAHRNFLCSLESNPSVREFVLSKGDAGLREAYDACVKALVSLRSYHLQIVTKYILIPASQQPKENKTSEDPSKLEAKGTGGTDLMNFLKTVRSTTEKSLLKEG
Method: IDO1 Cellular Assay in Hela Cells Stimulated with IFNγ
Hela cells were cultured in complete Hela culture medium (90% EMEM, 10% heat-inactivated fetal bovine serum) and expanded to about 1×10^9 cells. The cells were then collected and frozen down at 10×10^6 cells/vial in 1 mL frozen medium (90% complete Hela culture medium, 10% DMSO)
Compounds to be tested were serially diluted in ten 3-fold steps in DMSO starting from 10 mM DMSO stocks in Echo low volume plate(s). Compound dilutions or DMSO alone were then dispensed from the dilution plate(s) into Greiner black 384-well assay plate(s) (catalog #781086, 50 nL/well) using an Echo 550 acoustic liquid handler (Labcyte).
Frozen Hela cells were thawed and transferred into Hela assay medium (99% complete Hela culture medium, 1% Pen/Strep) with 20 mL medium/vial of cells. The cells were spun down at 250 g in a table top centrifuge for 5 min and suspended in same volume of Hela assay medium. The cells were then counted and adjusted to a density of 2×10^5 cells/ml in Hela assay medium. Sterile L-tryptophan were added to the cells with final concentration of 300 uM L-tryptophan. A small aliquot (2 mL/plate) of Hela cells were set aside and were not treated with IFNγ, to serve as the Max-E control. The rest of Hela cells were added with sterile IFNγ (Cat #285-IF, R & D systems) with a final concentration of 100 ng/mL.
Hela cells with and without IFNγ were dispensed to the respective wells of 384-well assay plates containing the compounds. The plates were incubated for about 48 hours at a 37° C., 5% CO2 incubator. Afterwards, 12 μL of 0.5 M methyl isonipecotate in dimethyl sulfoxide were added into each well and the plates were sealed and incubated at 37° C. without CO2 overnight. The plates were centrifuged for 1 min at 200×g. The resulting fluorescence was measured in a Spectramax plate reader (Molecular Devices) with a 400 nm excitation filter and a 510 nm emission filter.
The fluorescence intensity of each well was corrected for the background observed in wells with non-IFNγ-treated cells and was expressed as a fraction of the intensity observed in wells of IFNγ-treated cells and DMSO only. Potencies were calculated by linear least squares fit to the four parameter logistic IC50 equation.

[2] = target: HIS-tagged IDO1 protein (Homo sapiens (Human), UniProt P14902); test: IDO1 Enzyme Assay; assay type: biochemical; conditions: recombinant IDO1 40 nM, tryptophan substrate, fluorescence readout
HIS-tagged IDO1 protein, sequence (P14902 whole entry): as above
Method: Biological Assays IDO1 Enzyme Assay
Compounds to be tested were serially diluted in ten 3-fold steps in DMSO starting from 10 mM DMSO stocks. Compound dilutions or DMSO alone were then dispensed from the dilution plate into a Greiner black 384-well assay plate (catalog #781086) using an Echo 555 acoustic liquid handler (Labcyte).
HIS-tagged IDO1 protein was recombinantly expressed in Escherichia coli using ZYP5052 autoinduction media supplemented with 500 μM delta aminolevulinic acid for 48 hours at 16 degrees Celsius. IDO1 protein was purified using Ni^2+-affinity resin and size exclusion chromatography. Purified protein was then diluted in assay buffer (50 mM Tris pH 7.0, 1% glycerol, 20 μM methylene blue, 0.05% Tween-20, 20 mM sodium ascorbate, 100 units/mL catalase to obtain a final IDO1 concentration of 40 nM. IDO1 solution […] or buffer alone […] was dispensed to wells of the assay plate using a BioRAPTR liquid dispenser (Beckman Coulter). Assay plates containing compound and IDO1 enzyme were incubated at room temperature for 30 minutes. Afterwards, 10 μL of 400 μM tryptophan in assay buffer were added to each well of the assay plate using a BioRAPTR liquid dispenser. Plates were incubated at room temperature for 60 minutes and reactions were quenched by addition of 10 μL of 0.5 M methyl isonipecotate in dimethyl sulfoxide. Plates were sealed and incubated at 37 degrees Celsius for 4 hours or 50 degrees Celsius for 2 hours. The plates are allowed to cool and then centrifuged for 1 minute at 1000×g. The resulting fluorescence was measured in an Envision plate reader (Perkin Elmer) with a 400/25 nm excitation filter and an 510/20 nm emission filter.
Potencies were calculated by linear least squares fit to the four parameter logistic IC50 equation.

| SMILES | IC50 [1] [nM] | IC50 [2] [nM] |
| --- | --- | --- |
| CC(=O)N[C@H]1C[C@H](Oc2nonc2/C(=N/O)N[C@H]2Cc3ccc(F)cc32)C1 [Example 37, N-{trans-3-[(4-{N-[(7S)-4-fluorobicyclo[4.2.0]octa-1,3,5-trien-7-yl]-N′-hydroxycarbamimidoyl}-1,2,5-oxadiazol-3-yl)oxy]cyclobutyl}acetamide] | 91.3 | 83.4 |
| CC(=O)NC[C@H](O)COc1nonc1/C(=N/O)N[C@H]1Cc2ccc(F)cc21 [Example 53, N-{(2S)-3-[(4-{N-[(7S)-4-fluorobicyclo[4.2.0]octa-1,3,5-trien-7-yl]-N′-hydroxycarbamimidoyl}-1,2,5-oxadiazol-3-yl)oxy]-2-hydroxypropyl}acetamide] | 328 | 216 |
| CC(Oc1nonc1/C(=N/O)NC1Cc2ccc(F)cc21)C(=O)NCCO (stereo not shown) [Example 23, 2-({4-[N-(4-fluorobicyclo[4.2.0]octa-1,3,5-trien-7-yl)-N′-hydroxycarbamimidoyl]-1,2,5-oxadiazol-3-yl}oxy)-N-(2-hydroxyethyl)propanamide] | 1930 | 1670 |
| O=C(COc1nonc1/C(=N/O)N[C@H]1Cc2ccc(F)cc21)N1CC[C@H](O)C1 [Example 45, N-[(7S)-4-fluorobicyclo[4.2.0]octa-1,3,5-trien-7-yl]-N′-hydroxy-4-{2-[(3S)-3-hydroxypyrrolidin-1-yl]-2-oxoethoxy}-1,2,5-oxadiazole-3-carboximidamide] | 1280 | 990 |
| O=C(N[C@H]1C[C@@H](Oc2nonc2/C(=N/O)N[C@H]2Cc3ccc(F)cc32)C1)C1(O)CC1 [Example 65, N-((1R,3s)-3-((4-((Z)-N-((S)-4-fluorobicyclo[4.2.0]octa-1(6),2,4-trien-7-yl)-N′-hydroxycarbamimidoyl)-1,2,5-oxadiazol-3-yl)oxy)cyclobutyl)-1-hydroxycyclopropanecarboxamide] | 280 | 167 |
| O=C(CO)N1CC[C@H]1COc1nonc1/C(=N/O)N[C@H]1Cc2ccc(F)cc21 [Example 54, N-[(7S)-4-fluorobicyclo[4.2.0]octa-1,3,5-trien-7-yl]-N′-hydroxy-4-{[(2S)-1-(hydroxyacetyl)azetidin-2-yl]methoxy}-1,2,5-oxadiazole-3-carboximidamide] | 1340 | 1490 |
| NC(=O)COc1nonc1/C(=N/O)N[C@H]1Cc2ccc(F)cc21 [Example 17, 2-[(4-{N-[(7S)-4-fluorobicyclo[4.2.0]octa-1,3,5-trien-7-yl]-N′-hydroxycarbamimidoyl}-1,2,5-oxadiazol-3-yl)oxy]acetamide] | 220 | 186 |
| O=C(CO)N1CCC[C@@H]1COc1nonc1/C(=N/O)N[C@H]1Cc2ccc(F)cc21 [Example 58, N-[(7S)-4-fluorobicyclo[4.2.0]octa-1,3,5-trien-7-yl]-N′-hydroxy-4-{[(2R)-1-(hydroxyacetyl)pyrrolidin-2-yl]methoxy}-1,2,5-oxadiazole-3-carboximidamide] | 1340 | 1490 |
| CC(=O)NC[C@@H](CO)Oc1nonc1/C(=N/O)N[C@H]1Cc2ccc(F)cc21 [Example 55, N-{(2S)-2-[(4-{N-[(7S)-4-fluorobicyclo[4.2.0]octa-1,3,5-trien-7-yl]-N′-hydroxycarbamimidoyl}-1,2,5-oxadiazol-3-yl)oxy]-3-hydroxypropyl}acetamide] | 328 | 216 |
| CC(C)(COc1nonc1/C(=N/O)N[C@H]1Cc2ccc(F)cc21)NC(=O)CO [Example 35, N-{1-[(4-{N-[(7S)-4-fluorobicyclo[4.2.0]octa-1,3,5-trien-7-yl]-N′-hydroxycarbamimidoyl}-1,2,5-oxadiazol-3-yl)oxy]-2-methylpropan-2-yl}-2-hydroxyacetamide] | 2030 | 2150 |
| CC(C)(O)CNC(=O)COc1nonc1/C(=N/O)NC1Cc2ccc(F)cc21 (stereo not shown) [Example 14, 2-({4-[N-(4-fluorobicyclo[4.2.0]octa-1,3,5-trien-7-yl)-N′-hydroxycarbamimidoyl]-1,2,5-oxadiazol-3-yl}oxy)-N-(2-hydroxy-2-methylpropyl)acetamide] | 770 | 985 |
| C[C@@H](O)C(=O)N1CC(Oc2nonc2/C(=N/O)N[C@H]2Cc3ccc(F)cc32)C1 [Example 61, N-((S)-4-fluorobicyclo[4.2.0]octa-1(6),2,4-trien-7-yl)-N′-hydroxy-4-((1-((R)-2-hydroxypropanoyl)azetidin-3-yl)oxy)-1,2,5-oxadiazole-3-carboximidamide] | 99 | 89 |
| CS(=O)(=O)CCOc1nonc1/C(=N/O)N[C@H]1Cc2ccc(F)cc21 [Example 27, N-[(7S)-4-fluorobicyclo[4.2.0]octa-1,3,5-trien-7-yl]-N′-hydroxy-4-[2-(methylsulfonyl)ethoxy]-1,2,5-oxadiazole-3-carboximidamide] | 1330 | 1480 |
| O=C(CO)N1CC[C@H](Oc2nonc2/C(=N/O)N[C@H]2Cc3ccc(F)cc32)C1 [Example 25, N-[(7S)-4-fluorobicyclo[4.2.0]octa-1,3,5-trien-7-yl]-N′-hydroxy-4-{[(3S)-1-(hydroxyacetyl)pyrrolidin-3-yl]oxy}-1,2,5-oxadiazole-3-carboximidamide] | 2000 | 1200 |
| NS(=O)(=O)NCCCOc1nonc1/C(=N/O)N[C@H]1Cc2ccc(F)cc21 [Example 64, (S,Z)-N-(4-fluorobicyclo[4.2.0]octa-1(6),2,4-trien-7-yl)-N′-hydroxy-4-(3-(sulfamoylamino)propoxy)-1,2,5-oxadiazole-3-carboximidamide] | 66 | 37 |
| NC(=O)N(CCO)CCOc1nonc1/C(=N/O)NC1Cc2ccc(F)cc21 (stereo not shown) [Example 15, 4-{2-[carbamoyl(2-hydroxyethyl)amino]ethoxy}-N-(4-fluorobicyclo[4.2.0]octa-1,3,5-trien-7-yl)-N′-hydroxy-1,2,5-oxadiazole-3-carboximidamide] | 685 | 479 |
| C[C@@H](CNS(N)(=O)=O)Oc1nonc1/C(=N/O)N[C@H]1Cc2ccc(F)cc21 [Example 67, (Z)-N-((S)-4-fluorobicyclo[4.2.0]octa-1(6),2,4-trien-7-yl)-N′-hydroxy-4-(((S)-1-(sulfamoylamino)propan-2-yl)oxy)-1,2,5-oxadiazole-3-carboximidamide] | 848 | 1550 |
| CC(=O)N[C@H](CO)COc1nonc1/C(=N/O)N[C@H]1Cc2ccc(F)cc21 [Example 51, N-{(2R)-1-[(4-{N-[(7S)-4-fluorobicyclo[4.2.0]octa-1,3,5-trien-7-yl]-N′-hydroxycarbamimidoyl}-1,2,5-oxadiazol-3-yl)oxy]-3-hydroxypropan-2-yl}acetamide] | 1340 | 1070 |
| O/N=C(\N[C@H]1Cc2ccc(F)cc21)c1nonc1OC1CNC1 [Example 21, 4-[(azetidin-3-yl)oxy]-N-[(7S)-4-fluorobicyclo[4.2.0]octa-1,3,5-trien-7-yl]-N′-hydroxy-1,2,5-oxadiazole-3-carboximidamide] | 1780 | 224 |
| O=C(COc1nonc1/C(=N/O)N[C@H]1Cc2ccc(F)cc21)NC[C@@H](O)CO [Example 16, N-[(2R)-2,3-dihydroxypropyl]-2-[(4-{N-[(7S)-4-fluorobicyclo[4.2.0]octa-1,3,5-trien-7-yl]-N′-hydroxycarbamimidoyl}-1,2,5-oxadiazol-3-yl)oxy]acetamide] | 509 | 447 |
